Test results reported in US20240082282A1 (priority 2020, published 2024).
Like-named read-outs stand apart in the source and are kept apart here.

Tests used:
HEK293 = settings: HEK293, alamar blue, 72 hours
[1] = tested on: E. coli ΔtolC-Pore (no efflux, hyperporinated); assay: MIC of E. coli mutant strains
E. coli ribosomes = assay: Toeprinting / in vitro translation, affinity to ribosome; assay type: biochemical
[2] = tested on: Leptospira interrogans ATCC BAA-1198
[3] = tested on: E. coli WT-Pore (hyperporinated); assay: MIC of E. coli mutant strains
[4] = tested on: B. burgdorferi hygromycin A resistant mutant KLEx2; assay: RNAseq of hygromycin A treated vs untreated cells; assay type: cell-based; settings: for log2 Fold Change: 4 ug/ml hygromycin A vs untreated
[5] = tested on: Borrelia burgdorferi (B31, N40, 297); assay type: cell-based
B. turcica KLEX1 = assay: MIC of hygromycin A resistant mutant; assay type: cell-based

In the case of Hygromycin A, the IC50 (HEK293) is reported as >512 µg/mL, the “Maximal non-toxic dose tested relative to minimal efficacious dose” value (500 mg/kg vs minimal efficacious dose) is reported as 10 fold and the “Toxicity at maximal dose tested” value (C3H mice, 500 mg/kg, preliminary data) is reported as “absence of toxicity”. For the same substance, the Signs of toxicity (any of the doses used in the efficacy experiments (IP, gavage, bait)) was “no signs of toxicity”, the Indications of toxicity (even at very high doses) was “no indications of toxicity” and the Biosafety window (preliminary testing) was > 500 mg/kg. For the same substance, the MIC [1] was 16 µg/mL, the Kd (E. coli ribosomes; E. coli ribosomes, inferred from in vitro translation arrest, read-out: Kd of binding to the ribosome) was < 10 nM and the “Arrest of in vitro translation of model ORFs” value (E. coli ribosomes; lowest concentration tested, 0.6 μM) was “complete arrest of translation”. The “Minimum inhibitory concentration (MIC)” value [2] was 4 µg/mL, the MIC [3] was 512 µg/mL and the “log2 Fold Change” value ([4]; gene 16S) was −1.80. For the same substance, the “log2 Fold Change” value ([4]; gene BBC10) was −8.07, the “log2 Fold Change” value ([4]; gene BBC11) was −7.92 and the “log2 Fold Change” value ([4]; gene BB_0183) was −1.46. For the same substance, the “log2 Fold Change” value ([4]; gene BB_0206) was 1.07, the “log2 Fold Change” value ([4]; gene BB_0212) was −1.15 and the “log2 Fold Change” value ([4]; gene BB_0731) was −1.01. For the same substance, the “log2 Fold Change” value ([4]; gene BB_0758) was 1.32, the “log2 Fold Change” value ([4]; gene BB_0839) was −1.15 and the “log2 Fold Change” value ([4]; gene BB_0844) was −1.41. For the same substance, the “log2 Fold Change” value ([4]; gene BB_A07) was −1.23, the “log2 Fold Change” value ([4]; gene BB_A34) was 1.06 and the “log2 Fold Change” value ([4]; gene BB_B13) was 1.12. For the same substance, the “log2 Fold Change” value ([4]; gene BB_H41) was −2.37, the “log2 Fold Change” value ([4]; gene BB_I18) was 1.16 and the “log2 Fold Change” value ([4]; gene BB_J11) was 1.02. For the same substance, the “log2 Fold Change” value ([4]; gene BB_J17) was 1.43, the “log2 Fold Change” value ([4]; gene BB_J27) was 1.18 and the “log2 Fold Change” value ([4]; gene BB_J31) was 1.22. The “log2 Fold Change” value ([4]; gene BB_J45) was 1.22, the “log2 Fold Change” value ([4]; gene BB_K42) was −1.05 and the “log2 Fold Change” value ([4]; gene BB_L03) was 1.06. For the same substance, the “log2 Fold Change” value ([4]; gene BB_N03) was 1.15, the “log2 Fold Change” value ([4]; gene BB_N04) was 1.06 and the “log2 Fold Change” value ([4]; gene BB_O18) was −1.04. The “log2 Fold Change” value ([4]; gene BB_P03) was 1.06, the “log2 Fold Change” value ([4]; gene BB_U05) was −1.14 and the “log2 Fold Change” value ([4]; gene bmpD) was −1.67. For the same substance, the “log2 Fold Change” value ([4]; gene glpK) was −1.62, the “log2 Fold Change” value ([4]; gene tRNA-Cys-1) was −1.17 and the “Decrease in the expression of bmpD” value ([4]; transcriptome of hygromycin A treated KLEX2 cells vs untreated) was 2.78 fold. For the same substance, the MIC ([5]; B. burgdorferi) was 0.25 µg/mL, the MIC ([5]; Borrelia burgdorferi (B31, N40, 297)) was 0.25 µg and the MIC ([5]; wild type B. burgdorferi (FIG. 7B)) was 0.25 µg/mL. The MIC (B. turcica KLEX1; B. turcica KLEX1, stable hygromycin A resistance) was 8 µg/mL and the “MIC increase as compared to wild type parent strain” value (B. turcica KLEX1; B. turcica KLEX1 vs parent) was 16 fold.
